In patent US20070048250A1, “Methods of treating concomitant constipation in a cancer treatment regimen including imexon” (AmpliMed Corporation, priority 2005, published 2007):

Columns and labels:
[1] = tested on: fresh human tumor cell lines; settings: cited from earlier work
human tumor cell lines = settings: cited from earlier work
patients = assay: clinical study of imexon to treat cancer: adverse events (daily dose 5 consecutive days per week, every other week, four-week cycle); format: in vivo, human
Excerpt: As described hereinbefore, it has been found, unexpectedly, that the administration of a pharmaceutical composition comprising imexon induces constipation in a large percentage of patients. Of forty nine (49) patients taking part in a clinical study investigating the use of imexon to treat cancer, thirty one (31) patients (63.3%) were reported to have had the gastrointestinal toxicity of constipation in association with their treatment with imexon. […] All other observed gastrointestinal adverse events individually accounted for less than 5% of total gastrointestinal adverse events.
Of the forty nine (49) patients treated in the clinical study, thirty nine (39) received imexon at a dose equal to or greater than 140 mg/m^2, thirty three (33) received imexon at a dose equal to or greater than 185 mg/m^2, and thirty (30) received imexon at a dose equal to or greater than 245 mg/m^2.
Of these seventy three (73) constipation adverse events, fifty two (52) of the adverse events (71.2%) were characterized as “possibly,” “probably,” or “definitely related to the treatment” of the patient with imexon.

[2] = 20 mg/m^2, relationship Not Related
[3] = 80 mg/m^2, relationship Not Related
[4] = 105 mg/m^2, relationship Not Related
[5] = 140 mg/m^2, relationship Not Related
[6] = 140 mg/m^2, relationship Probable
[7] = 140 mg/m^2, relationship Unlikely
[8] = 185 mg/m^2, relationship Not Related
[9] = 185 mg/m^2, relationship Possible
[10] = 185 mg/m^2, relationship Probable
[11] = 245 mg/m^2, relationship Not Related
[12] = 245 mg/m^2, relationship Possible
[13] = 245 mg/m^2, relationship Probable
[14] = 325 mg/m^2, relationship Possible
[15] = 325 mg/m^2, relationship Probable
[16] = 430 mg/m^2, relationship Possible
[17] = 430 mg/m^2, relationship Probable
[18] = 430 mg/m^2, relationship Unlikely
[19] = 570 mg/m^2, relationship Definite
[20] = 570 mg/m^2, relationship Probable
[21] = 750 mg/m^2, relationship Definite
[22] = 750 mg/m^2, relationship Possible
[23] = 750 mg/m^2, relationship Probable
[24] = 875 mg/m^2, relationship Definite
[25] = 875 mg/m^2, relationship Possible
[26] = 875 mg/m^2, relationship Probable
[27] = 1000 mg/m^2, relationship Probable
[28] = all doses 20-1000 mg/m^2 (Total), relationship Definite
[29] = all doses 20-1000 mg/m^2 (Total), relationship Not Related
[30] = all doses 20-1000 mg/m^2 (Total), relationship Possible
[31] = all doses 20-1000 mg/m^2 (Total), relationship Probable
[32] = all doses 20-1000 mg/m^2 (Total), relationship Unlikely
[33] = all doses 20-1000 mg/m^2, 49 patients, all relationships (Total)
[34] = dose equal to or greater than 185 mg/m^2
[35] = dose equal to or greater than 245 mg/m^2

N=C1NC(=O)N2CC12 (centres unmarked) [imexon, 4-imino-1,3-diazabicyclo[3.1.0]-hexan-2-one]
(Total) 4: Constipation Adverse Events, Total (patients; [32])
5: Constipation Adverse Events, Grade 2 (patients; [4]) | Constipation Adverse Events, Total (patients; [12]) | Constipation Adverse Events, Grade 2 (patients; [17]) | Constipation Adverse Events, Grade 1 (patients; [31])
selective cytotoxicity: cytotoxicity to multiple myeloma in the clonogenic assay ([1]; multiple myeloma)
active: activity against fresh human tumor cell lines in clonogenic assay [1] | activity against a variety of human tumor cell lines in culture (human tumor cell lines)
21.8%: constipation adverse events as share of all gastrointestinal adverse events (patients; 49 patients)
(Total) 21: Constipation Adverse Events, Total (patients; [31])
(Total) 12: Constipation Adverse Events, Total (patients; [30])
3: Constipation Adverse Events, Grade 2 (patients; [3]) | Constipation Adverse Events, Grade 3 (patients; [4]) | Constipation Adverse Events, Total (patients; [7]) | Constipation Adverse Events, Total (patients; [13]) | Constipation Adverse Events, Total (patients; [15]) | Constipation Adverse Events, Grade 3 (patients; [21]) | Constipation Adverse Events, Grade 1 (patients; [30])
10: Constipation Adverse Events, Grade 2 (patients; [29])
(Total) 43: Constipation Adverse Events, Grade 2 (patients; [33])
(Total) 16: Constipation Adverse Events, Grade 3 (patients; [33])
(Total) 14: Constipation Adverse Events, Grade 1 (patients; [33])
72.2%: constipation adverse events characterized as probably, or definitely related to the treatment (patients; [34])
4: Constipation Adverse Events, Total (patients; [3]) | Constipation Adverse Events, Grade 2 (patients; [12]) | Constipation Adverse Events, Grade 2 (patients; [19]) | Constipation Adverse Events, Grade 2 (patients; [21]) | Constipation Adverse Events, Total (patients; [24]) | Constipation Adverse Events, Grade 1 (patients; [28])
(Total) 73: Constipation Adverse Events, Total (patients; all doses 20-1000 mg/m^2, 49 patients, all relationships (Total), listed as Imexon)
(Total) 0: Constipation Adverse Events, Grade 4 (patients; [33]) | Constipation Adverse Events, Grade 5 (patients; [33])
1: Constipation Adverse Events, Grade 2 (patients; [2]) | Constipation Adverse Events, Grade 3 (patients; [2]) | Constipation Adverse Events, Grade 3 (patients; [3]) | Constipation Adverse Events, Grade 2 (patients; [5]) | Constipation Adverse Events, Total (patients; [5]) | Constipation Adverse Events, Grade 2 (patients; [6]) | Constipation Adverse Events, Total (patients; [6]) | Constipation Adverse Events, Grade 3 (patients; [7]) | Constipation Adverse Events, Grade 3 (patients; [8]) | Constipation Adverse Events, Total (patients; [8]) | Constipation Adverse Events, Grade 1 (patients; [9]) | Constipation Adverse Events, Total (patients; [9]) | Constipation Adverse Events, Grade 2 (patients; [10]) | Constipation Adverse Events, Total (patients; [10]) | Constipation Adverse Events, Grade 1 (patients; [11]) | Constipation Adverse Events, Total (patients; [11]) | Constipation Adverse Events, Grade 3 (patients; [12]) | Constipation Adverse Events, Grade 3 (patients; [13]) | Constipation Adverse Events, Grade 1 (patients; [15]) | Constipation Adverse Events, Grade 2 (patients; [16]) | Constipation Adverse Events, Total (patients; [16]) | Constipation Adverse Events, Grade 3 (patients; [17]) | Constipation Adverse Events, Grade 1 (patients; [18]) | Constipation Adverse Events, Total (patients; [18]) | Constipation Adverse Events, Grade 1 (patients; [19]) | Constipation Adverse Events, Grade 1 (patients; [20]) | Constipation Adverse Events, Total (patients; [20]) | Constipation Adverse Events, Grade 1 (patients; [21]) | Constipation Adverse Events, Grade 2 (patients; [24]) | Constipation Adverse Events, Grade 3 (patients; [24]) | Constipation Adverse Events, Grade 2 (patients; [25]) | Constipation Adverse Events, Total (patients; [25]) | Constipation Adverse Events, Grade 1 (patients; [26]) | Constipation Adverse Events, Total (patients; [26]) | Constipation Adverse Events, Grade 2 (patients; [27]) | Constipation Adverse Events, Total (patients; [27]) | Constipation Adverse Events, Grade 1 (patients; [29]) | Constipation Adverse Events, Grade 3 (patients; [30]) | Constipation Adverse Events, Grade 1 (patients; [32]) | Constipation Adverse Events, Grade 3 (patients; [32])
7: Constipation Adverse Events, Total (patients; [19])
0: Constipation Adverse Events, Total (patients; 20 mg/m^2, relationship Definite) | Constipation Adverse Events, Total (patients; 20 mg/m^2, relationship Possible) | Constipation Adverse Events, Total (patients; 20 mg/m^2, relationship Probable) | Constipation Adverse Events, Total (patients; 20 mg/m^2, relationship Unlikely) | Constipation Adverse Events, Total (patients; 40 mg/m^2, relationship Definite) | Constipation Adverse Events, Total (patients; 40 mg/m^2, relationship Not Related) | Constipation Adverse Events, Total (patients; 40 mg/m^2, relationship Possible) | Constipation Adverse Events, Total (patients; 40 mg/m^2, relationship Probable) | Constipation Adverse Events, Total (patients; 40 mg/m^2, relationship Unlikely) | Constipation Adverse Events, Total (patients; 80 mg/m^2, relationship Definite) | Constipation Adverse Events, Total (patients; 80 mg/m^2, relationship Possible) | Constipation Adverse Events, Total (patients; 80 mg/m^2, relationship Probable) | Constipation Adverse Events, Total (patients; 80 mg/m^2, relationship Unlikely) | Constipation Adverse Events, Total (patients; 105 mg/m^2, relationship Definite) | Constipation Adverse Events, Total (patients; 105 mg/m^2, relationship Possible) | Constipation Adverse Events, Total (patients; 105 mg/m^2, relationship Probable) | Constipation Adverse Events, Total (patients; 105 mg/m^2, relationship Unlikely) | Constipation Adverse Events, Total (patients; 140 mg/m^2, relationship Definite) | Constipation Adverse Events, Total (patients; 140 mg/m^2, relationship Possible) | Constipation Adverse Events, Total (patients; 185 mg/m^2, relationship Definite) | Constipation Adverse Events, Total (patients; 185 mg/m^2, relationship Unlikely) | Constipation Adverse Events, Total (patients; 245 mg/m^2, relationship Definite) | Constipation Adverse Events, Total (patients; 245 mg/m^2, relationship Unlikely) | Constipation Adverse Events, Total (patients; 325 mg/m^2, relationship Definite) | Constipation Adverse Events, Total (patients; 325 mg/m^2, relationship Not Related) | Constipation Adverse Events, Total (patients; 325 mg/m^2, relationship Unlikely) | Constipation Adverse Events, Total (patients; 430 mg/m^2, relationship Definite) | Constipation Adverse Events, Total (patients; 430 mg/m^2, relationship Not Related) | Constipation Adverse Events, Total (patients; 570 mg/m^2, relationship Not Related) | Constipation Adverse Events, Total (patients; 570 mg/m^2, relationship Possible) | Constipation Adverse Events, Total (patients; 570 mg/m^2, relationship Unlikely) | Constipation Adverse Events, Total (patients; 750 mg/m^2, relationship Not Related) | Constipation Adverse Events, Total (patients; 750 mg/m^2, relationship Unlikely) | Constipation Adverse Events, Total (patients; 875 mg/m^2, relationship Not Related) | Constipation Adverse Events, Total (patients; 875 mg/m^2, relationship Unlikely) | Constipation Adverse Events, Total (patients; 1000 mg/m^2, relationship Definite) | Constipation Adverse Events, Total (patients; 1000 mg/m^2, relationship Not Related) | Constipation Adverse Events, Total (patients; 1000 mg/m^2, relationship Possible) | Constipation Adverse Events, Total (patients; 1000 mg/m^2, relationship Unlikely) | Constipation Adverse Events, Grade 4 (patients; [28]) | Constipation Adverse Events, Grade 5 (patients; [28]) | Constipation Adverse Events, Grade 4 (patients; [29]) | Constipation Adverse Events, Grade 5 (patients; [29]) | Constipation Adverse Events, Grade 4 (patients; [30]) | Constipation Adverse Events, Grade 5 (patients; [30]) | Constipation Adverse Events, Grade 4 (patients; [31]) | Constipation Adverse Events, Grade 5 (patients; [31]) | Constipation Adverse Events, Grade 4 (patients; [32]) | Constipation Adverse Events, Grade 5 (patients; [32])
2: Constipation Adverse Events, Total (patients; [2]) | Constipation Adverse Events, Grade 2 (patients; [7]) | Constipation Adverse Events, Grade 2 (patients; [13]) | Constipation Adverse Events, Grade 2 (patients; [14]) | Constipation Adverse Events, Total (patients; [14]) | Constipation Adverse Events, Grade 2 (patients; [15]) | Constipation Adverse Events, Grade 1 (patients; [17]) | Constipation Adverse Events, Grade 3 (patients; [19]) | Constipation Adverse Events, Grade 1 (patients; [22]) | Constipation Adverse Events, Total (patients; [22]) | Constipation Adverse Events, Grade 2 (patients; [23]) | Constipation Adverse Events, Total (patients; [23]) | Constipation Adverse Events, Grade 1 (patients; [24]) | Constipation Adverse Events, Grade 3 (patients; [31]) | Constipation Adverse Events, Grade 2 (patients; [32])
9: Constipation Adverse Events, Grade 2 (patients; [28])
96.1%: constipation adverse events characterized as possibly, probably, or definitely related to the treatment (patients; [35])
8: Constipation Adverse Events, Total (patients; [4]) | Constipation Adverse Events, Total (patients; [17]) | Constipation Adverse Events, Total (patients; [21]) | Constipation Adverse Events, Grade 2 (patients; [30])
11.9%: vomiting as share of total gastrointestinal adverse events (patients; 49 patients)
14: Constipation Adverse Events, Grade 2 (patients; [31])
less than 5%: all other observed gastrointestinal adverse events, individually, as share of total gastrointestinal adverse events (patients; 49 patients)
(Total) 19: Constipation Adverse Events, Total (patients; [28])
51: constipation adverse events in total (patients; [35])
73: Constipation Adverse Events, Total (patients; [33])
54: constipation adverse events in total (patients; [34])
23.0%: nausea as share of all gastrointestinal adverse events (patients; 49 patients)
6: Constipation Adverse Events, Grade 3 (patients; [28]) | Constipation Adverse Events, Grade 3 (patients; [29])
13.4%: anorexia as share of total gastrointestinal adverse events (patients; 49 patients)
(Total) 17: Constipation Adverse Events, Total (patients; [29])
10.5%: diarrhea as share of total gastrointestinal adverse events (patients; 49 patients)
74.5%: constipation adverse events characterized as probably, or definitely related to the treatment (patients; [35])
94.4%: constipation adverse events characterized as possibly, probably, or definitely related to the treatment (patients; [34])
